These molecules were tested against T1, TG2 (human tissue transglutaminase) (Homo sapiens, UniProt P21980) (assay: colorimetric AL5 hydrolysis at […] nm, Kitz and Wilson time-dependent inactivation, saturation fit). Conditions: covalent (Cys277), irreversible; 100 µM AL5, corrected for substrate competition; 50 mM MOPS pH 6.91, 15.5 mM CaCl2, 25 °C.
T1 construct: gene TGM2; recombinant, expressed in and purified from E. coli as previously described; catalytic Cys277
T1 sequence (P21980 2-687): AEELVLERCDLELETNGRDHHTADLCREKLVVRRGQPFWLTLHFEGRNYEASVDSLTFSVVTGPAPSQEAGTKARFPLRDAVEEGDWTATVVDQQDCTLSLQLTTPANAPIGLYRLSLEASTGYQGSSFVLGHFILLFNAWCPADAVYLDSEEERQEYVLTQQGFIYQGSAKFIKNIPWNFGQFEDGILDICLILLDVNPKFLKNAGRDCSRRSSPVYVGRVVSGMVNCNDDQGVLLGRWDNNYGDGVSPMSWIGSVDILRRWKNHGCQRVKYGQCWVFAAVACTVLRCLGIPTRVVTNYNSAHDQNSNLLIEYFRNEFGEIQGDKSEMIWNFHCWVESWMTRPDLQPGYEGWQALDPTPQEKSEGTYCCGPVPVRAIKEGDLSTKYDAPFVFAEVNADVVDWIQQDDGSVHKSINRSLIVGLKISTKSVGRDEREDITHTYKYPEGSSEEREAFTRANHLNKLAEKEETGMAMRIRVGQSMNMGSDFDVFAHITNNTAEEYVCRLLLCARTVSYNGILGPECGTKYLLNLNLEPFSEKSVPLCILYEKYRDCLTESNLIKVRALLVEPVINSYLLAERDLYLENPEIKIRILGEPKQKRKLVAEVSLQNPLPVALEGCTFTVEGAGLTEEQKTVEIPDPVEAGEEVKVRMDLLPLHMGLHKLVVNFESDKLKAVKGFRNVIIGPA
Format: biochemical
Work on C=CC(=O)NCC(=O)N1CCOCC1 [compound 5, 5] yielded a KI (inactivation) of 487 ± 161 µM. C=CC(=O)NCC(=O)N1CCN(C(C)=O)CC1 [compound 3, 3] was tested, and the KI (inactivation) was 96 ± 17 µM. For C=CC(=O)NCC(N)=O [compound 6, 6], the KI (inactivation) was 842 ± 25 µM. For C=CC(=O)NCC(=O)N1CCN(C(=O)C23CC4CC(CC(C4)C2)C3)CC1 [compound 1, 1], the KI (inactivation) was 3.2 ± 1 µM. C=CC(=O)NCC(=O)N1CCN(C(=O)OC(C)(C)C)CC1 [compound 2, 2] showed a KI (inactivation) of 129 ± 53 µM. In the case of C=CC(N)=O [compound 8, acrylamide], the KI (inactivation) is reported as 148 ± 68 µM. Work on C=CC(=O)N1CCN(C(=O)C23CC4CC(CC(C4)C2)C3)CC1 [compound 4, 4] yielded a KI (inactivation) of 118 ± 59 µM.
